Measurements taken from PubChem BioAssay (NCI).
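Step 1: Grow cells in 96-well plates. Step 2: Expose to compound for 48 hours at 5 concentrations. Step 3: Interpolate endpoints linearly; if unreached, use highest concentration. GI50 is the concentration that inhibits growth by half. The concentration for full growth arrest is given as TGI.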

Experiments:
Experiment in all cases: DTP human tumour cell line panel, 48 h
786-0 renal = test system: 786-0 renal
A498 renal = test system: A498 renal
A549 NSCLC = test system: A549 NSCLC
ACHN renal = test system: ACHN renal
BT-549 breast = test system: BT-549 breast
CAKI-1 renal = test system: CAKI-1 renal
CCRF-CEM leukemia = test system: CCRF-CEM leukemia
COLO 205 colon = test system: COLO 205 colon
DU-145 prostate = test system: DU-145 prostate
EKVX NSCLC = test system: EKVX NSCLC
HCC-2998 colon = test system: HCC-2998 colon
HCT-116 colon = test system: HCT-116 colon
HCT-15 colon = test system: HCT-15 colon
HL-60(TB) leukemia = test system: HL-60(TB) leukemia
HOP-62 NSCLC = test system: HOP-62 NSCLC
HOP-92 NSCLC = test system: HOP-92 NSCLC
HS 578T breast = test system: HS 578T breast
HT29 colon = test system: HT29 colon
IGROV1 ovarian = test system: IGROV1 ovarian
K-562 leukemia = test system: K-562 leukemia
KM12 colon = test system: KM12 colon
LOX IMVI melanoma = test system: LOX IMVI melanoma
M14 melanoma = test system: M14 melanoma
MALME-3M melanoma = test system: MALME-3M melanoma
MCF7 breast = test system: MCF7 breast
MDA-MB-231 breast = test system: MDA-MB-231 breast
MDA-MB-435 = test system: MDA-MB-435
MOLT-4 leukemia = test system: MOLT-4 leukemia
NCI-H226 lung = test system: NCI-H226 lung
NCI-H23 lung = test system: NCI-H23 lung
NCI-H460 lung = test system: NCI-H460 lung
NCI-H522 lung = test system: NCI-H522 lung
NCI/ADR-RES ovarian = test system: NCI/ADR-RES ovarian
OVCAR-3 ovarian = test system: OVCAR-3 ovarian
OVCAR-4 ovarian = test system: OVCAR-4 ovarian
OVCAR-5 ovarian = test system: OVCAR-5 ovarian
OVCAR-8 ovarian = test system: OVCAR-8 ovarian
PC-3 prostate = test system: PC-3 prostate
RPMI-8226 leukemia = test system: RPMI-8226 leukemia
RXF 393 renal = test system: RXF 393 renal
SF-268 CNS = test system: SF-268 CNS
SF-295 CNS = test system: SF-295 CNS
SF-539 CNS = test system: SF-539 CNS
SK-MEL-2 melanoma = test system: SK-MEL-2 melanoma
SK-MEL-28 melanoma = test system: SK-MEL-28 melanoma
SK-MEL-5 melanoma = test system: SK-MEL-5 melanoma
SK-OV-3 ovarian = test system: SK-OV-3 ovarian
SN12C renal = test system: SN12C renal
SNB-19 CNS = test system: SNB-19 CNS
SNB-75 CNS = test system: SNB-75 CNS
SR leukemia = test system: SR leukemia
SW-620 colon = test system: SW-620 colon
T-47D breast = test system: T-47D breast
TK-10 renal = test system: TK-10 renal
U251 CNS = test system: U251 CNS
UACC-257 melanoma = test system: UACC-257 melanoma
UACC-62 melanoma = test system: UACC-62 melanoma
UO-31 renal = test system: UO-31 renal

SMILES: Cc1ccncc1N1CCN(c2ccnc(Cl)c2)C1=O
- GI50 (786-0 renal): > 100 µM
- TGI (786-0 renal): > 100 µM
- GI50 (A498 renal): > 100 µM
- TGI (A498 renal): > 100 µM
- GI50 (A549 NSCLC): > 100 µM
- TGI (A549 NSCLC): > 100 µM
- GI50 (ACHN renal): > 100 µM
- TGI (ACHN renal): > 100 µM
- GI50 (BT-549 breast): > 100 µM
- TGI (BT-549 breast): > 100 µM
- GI50 (CAKI-1 renal): > 100 µM
- TGI (CAKI-1 renal): > 100 µM
- GI50 (CCRF-CEM leukemia): > 100 µM
- TGI (CCRF-CEM leukemia): > 100 µM
- GI50 (COLO 205 colon): > 100 µM
- TGI (COLO 205 colon): > 100 µM
- GI50 (DU-145 prostate): > 100 µM
- TGI (DU-145 prostate): > 100 µM
- GI50 (EKVX NSCLC): > 100 µM
- TGI (EKVX NSCLC): > 100 µM
- GI50 (HCC-2998 colon): > 100 µM
- TGI (HCC-2998 colon): > 100 µM
- GI50 (HCT-116 colon): > 100 µM
- TGI (HCT-116 colon): > 100 µM
- GI50 (HCT-15 colon): > 100 µM
- TGI (HCT-15 colon): > 100 µM
- GI50 (HL-60(TB) leukemia): > 100 µM
- TGI (HL-60(TB) leukemia): > 100 µM
- GI50 (HOP-62 NSCLC): > 100 µM
- TGI (HOP-62 NSCLC): > 100 µM
- GI50 (HOP-92 NSCLC): > 100 µM
- TGI (HOP-92 NSCLC): > 100 µM
- GI50 (HS 578T breast): > 100 µM
- TGI (HS 578T breast): > 100 µM
- GI50 (HT29 colon): > 100 µM
- TGI (HT29 colon): > 100 µM
- GI50 (IGROV1 ovarian): > 100 µM
- TGI (IGROV1 ovarian): > 100 µM
- GI50 (K-562 leukemia): > 100 µM
- TGI (K-562 leukemia): > 100 µM
- GI50 (KM12 colon): > 100 µM
- TGI (KM12 colon): > 100 µM
- GI50 (LOX IMVI melanoma): > 100 µM
- TGI (LOX IMVI melanoma): > 100 µM
- GI50 (M14 melanoma): > 100 µM
- TGI (M14 melanoma): > 100 µM
- GI50 (MALME-3M melanoma): > 100 µM
- TGI (MALME-3M melanoma): > 100 µM
- GI50 (MCF7 breast): > 100 µM
- TGI (MCF7 breast): > 100 µM
- GI50 (MDA-MB-231 breast): > 100 µM
- TGI (MDA-MB-231 breast): > 100 µM
- GI50 (MDA-MB-435): > 100 µM
- TGI (MDA-MB-435): > 100 µM
- GI50 (MOLT-4 leukemia): > 100 µM
- TGI (MOLT-4 leukemia): > 100 µM
- GI50 (NCI-H226 lung): > 100 µM
- TGI (NCI-H226 lung): > 100 µM
- GI50 (NCI-H23 lung): > 100 µM
- TGI (NCI-H23 lung): > 100 µM
- GI50 (NCI-H460 lung): > 100 µM
- TGI (NCI-H460 lung): > 100 µM
- GI50 (NCI-H522 lung): > 100 µM
- TGI (NCI-H522 lung): > 100 µM
- GI50 (NCI/ADR-RES ovarian): > 100 µM
- TGI (NCI/ADR-RES ovarian): > 100 µM
- GI50 (OVCAR-3 ovarian): > 100 µM
- TGI (OVCAR-3 ovarian): > 100 µM
- GI50 (OVCAR-4 ovarian): > 100 µM
- TGI (OVCAR-4 ovarian): > 100 µM
- GI50 (OVCAR-5 ovarian): > 100 µM
- TGI (OVCAR-5 ovarian): > 100 µM
- GI50 (OVCAR-8 ovarian): > 100 µM
- TGI (OVCAR-8 ovarian): > 100 µM
- GI50 (PC-3 prostate): > 100 µM
- TGI (PC-3 prostate): > 100 µM
- GI50 (RPMI-8226 leukemia): > 100 µM
- TGI (RPMI-8226 leukemia): > 100 µM
- GI50 (RXF 393 renal): > 100 µM
- TGI (RXF 393 renal): > 100 µM
- GI50 (SF-268 CNS): > 100 µM
- TGI (SF-268 CNS): > 100 µM
- GI50 (SF-295 CNS): > 100 µM
- TGI (SF-295 CNS): > 100 µM
- GI50 (SF-539 CNS): > 100 µM
- TGI (SF-539 CNS): > 100 µM
- GI50 (SK-MEL-2 melanoma): > 100 µM
- TGI (SK-MEL-2 melanoma): > 100 µM
- GI50 (SK-MEL-28 melanoma): > 100 µM
- TGI (SK-MEL-28 melanoma): > 100 µM
- GI50 (SK-MEL-5 melanoma): > 100 µM
- TGI (SK-MEL-5 melanoma): > 100 µM
- GI50 (SK-OV-3 ovarian): > 100 µM
- TGI (SK-OV-3 ovarian): > 100 µM
- GI50 (SN12C renal): > 100 µM
- TGI (SN12C renal): > 100 µM
- GI50 (SNB-19 CNS): > 100 µM
- TGI (SNB-19 CNS): > 100 µM
- GI50 (SNB-75 CNS): > 100 µM
- TGI (SNB-75 CNS): > 100 µM
- GI50 (SR leukemia): > 100 µM
- TGI (SR leukemia): > 100 µM
- GI50 (SW-620 colon): > 100 µM
- TGI (SW-620 colon): > 100 µM
- GI50 (T-47D breast): > 100 µM
- TGI (T-47D breast): > 100 µM
- GI50 (TK-10 renal): > 100 µM
- TGI (TK-10 renal): > 100 µM
- GI50 (U251 CNS): > 100 µM
- TGI (U251 CNS): > 100 µM
- GI50 (UACC-257 melanoma): > 100 µM
- TGI (UACC-257 melanoma): > 100 µM
- GI50 (UACC-62 melanoma): > 100 µM
- TGI (UACC-62 melanoma): > 100 µM
- GI50 (UO-31 renal): > 100 µM
- TGI (UO-31 renal): > 100 µM
